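Results reflect a 48-hour exposure of cells in 96-well plates to compound at five concentrations. GI50 = concentration required for 50% inhibition of growth.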 Activity calls are given as the source filed them. No stated cut-off is given here; in the data, active = GI50 up to about 1.1 µM and inactive = higher.
How the values were obtained:
Assay in all cases: NCI anticancer screen, dose series, 48 h
[1] = system: A498
[2] = system: A549
[3] = system: CCRF-CEM
[4] = system: COLO 205
[5] = system: DU-145
[6] = system: EKVX
[7] = system: HCT-15
[8] = system: HOP-92
[9] = system: HT-29
[10] = system: Hs-578T
[11] = system: M14
[12] = system: MCF7
[13] = system: PC-3
[14] = system: SF-268
[15] = system: SF-539
[16] = system: SK-MEL-28
[17] = system: SK-MEL-5
[18] = system: SW-620
[19] = system: T47D
[20] = system: UACC-257

Compound	GI50 [1]	GI50 [2]	GI50 [3]	GI50 [4]	GI50 [5]	GI50 [6]	GI50 [7] [µM]	GI50 [8]	GI50 [9]	GI50 [10]	GI50 [11]	GI50 [12]	GI50 [13]	GI50 [14]	GI50 [15]	GI50 [16]	GI50 [17]	GI50 [18]	GI50 [19]	GI50 [20]
O=C1CCSc2c(cnc3ccccc23)N1	32.1 µM (inactive)	> 100 µM (inactive)	> 100 µM (inactive)	> 100 µM (inactive)	> 100 µM (inactive)	32.1 µM (inactive)	> 100	> 100 µM (inactive)	> 100 µM (inactive)	31.3 µM (inactive)	> 100 µM (inactive)	97.1 µM (inactive)	49.7 µM (inactive)	> 100 µM (inactive)	59.3 µM (inactive)	> 100 µM (inactive)	> 100 µM (inactive)	> 100 µM (inactive)	> 100 µM (inactive)	> 100 µM (inactive)
CCC(C)[C@H](NC(=O)[C@H](Cc1ccccc1)NC(=O)N(CC)c1ccccc1)C(=O)N[C@@H](CC(C)C)C(=O)OC (some centres not stated)	> 100 µM (inactive)	52.5 µM (inactive)	21.4 µM (inactive)	60.1 µM (inactive)	33.9 µM (inactive)	49.3 µM (inactive)	38.6	40.7 µM (inactive)	–	63.1 µM (inactive)	37.6 µM (inactive)	25.7 µM (inactive)	35.3 µM (inactive)	36.5 µM (inactive)	24.2 µM (inactive)	40.3 µM (inactive)	26.7 µM (inactive)	31.6 µM (inactive)	43.5 µM (inactive)	24.9 µM (inactive)
COc1ccc2c(c1)C1Oc3ccccc3CC1CO2 (configuration not stated)	34.4 µM (inactive)	55.3 µM (inactive)	> 100 µM (inactive)	53.1 µM (inactive)	> 100 µM (inactive)	47.2 µM (inactive)	34.1	25.2 µM (inactive)	42 µM (inactive)	34 µM (inactive)	75.3 µM (inactive)	78.2 µM (inactive)	46.1 µM (inactive)	> 100 µM (inactive)	> 100 µM (inactive)	–	32.6 µM (inactive)	63.1 µM (inactive)	26.2 µM (inactive)	35.9 µM (inactive)
O=c1[nH]nc(Cc2ccc(Cl)cc2)n1Nc1ccccc1	> 100 µM (inactive)	> 100 µM (inactive)	> 100 µM (inactive)	> 100 µM (inactive)	4.94 µM (inactive)	> 100 µM (inactive)	> 100	> 100 µM (inactive)	> 100 µM (inactive)	47.9 µM (inactive)	> 100 µM (inactive)	> 100 µM (inactive)	> 100 µM (inactive)	–	80 µM (inactive)	> 100 µM (inactive)	> 100 µM (inactive)	> 100 µM (inactive)	> 100 µM (inactive)	> 100 µM (inactive)
[N-]=[N+]=Nc1ccc2c(c1)Sc1ccccc1N2CCCCN1CCN(C(=O)CCNC(=O)Cc2ccc(C(=O)c3ccccc3)cc2)CC1	10 µM (inactive)	4.52 µM (inactive)	1.79 µM (inactive)	3.39 µM (inactive)	4.93 µM (inactive)	3.18 µM (inactive)	2.64	6.71 µM (inactive)	1.98 µM (inactive)	17.7 µM (inactive)	4.75 µM (inactive)	2.33 µM (inactive)	3.1 µM (inactive)	3.84 µM (inactive)	6.27 µM (inactive)	4.81 µM (inactive)	2.11 µM (inactive)	9.66 µM (inactive)	5.36 µM (inactive)	4.05 µM (inactive)
COc1cc2c(cc1OC)C(=O)/C(=C/c1ccc(Cl)cc1)CC2	> 10 µM (inactive)	> 10 µM (inactive)	> 10 µM (inactive)	> 10 µM (inactive)	> 10 µM (inactive)	> 10 µM (inactive)	> 10	> 10 µM (inactive)	> 10 µM (inactive)	> 10 µM (inactive)	> 10 µM (inactive)	> 10 µM (inactive)	> 10 µM (inactive)	> 10 µM (inactive)	> 10 µM (inactive)	> 10 µM (inactive)	> 10 µM (inactive)	> 10 µM (inactive)	> 10 µM (inactive)	> 10 µM (inactive)
CCN1/C(=C/c2ccc3ccccc3[n+]2CC)C=Cc2ccccc21	2.13 µM (inactive)	0.764 µM (active)	0.26 µM (active)	0.19 µM (active)	0.867 µM (active)	1.72 µM (inactive)	4.89	1.44 µM (inactive)	1.14 µM (inactive)	1.01 µM (active)	0.851 µM (active)	0.367 µM (active)	0.445 µM (active)	1.27 µM (inactive)	1.89 µM (inactive)	1.15 µM (inactive)	0.329 µM (active)	0.762 µM (active)	0.22 µM (active)	0.18 µM (active)
